# “Also recorded” adds a separate entry of the source. Read-outs that look alike come from different tables or passages of the source.
# Assays:
# [1] = tested on: O. volvulus third-stage larvae (L3); assay: O. volvulus L3 to L4 molting assay; assay type: cell-based, Onchocerca volvulus; conditions: Day 6, read-out: O. volvulus L3 Inhibition of Molting Day 6 IC50
# Protocol: O. volvulus, like other nematodes, undergo molts during their larval stages as they develop into the adult form. […] The molting assay tests the potency of compounds to prevent the L3 from molting to the L4 stage in vitro. […] Briefly, 5–10 Ov L3 collected from infected Simulium blackflies and frozen in liquid nitrogen were thawed and plated in 96-well plates seeded with 0.2 × 10^6 normal human peripheral blood mononuclear cells (PBMCs) in 100 µL complete medium containing 20% heat inactivated FBS and treated with compounds at 10, 3, 1, 0.3, 0.1 and 0.03 μM. L3 exposed to 0.5% DMSO or complete media only were run as negative controls. Larvae were incubated at 37 °C with 5% CO2, and molting was determined by examining the wells for highly motile L4 larvae and empty L3 casts after 6 days in culture.
# O. ochengi adult females = assay: O. ochengi adult female viability (MTT) assay; assay type: cell-based; conditions: Onchocerca ochengi, 168 h; Day 7, MTT; read-out: O. ochengi Adult Females Inhibition of Survival Day 7 IC50
# Excerpt: As humans are the only hosts for O. volvulus which are unavailable for screening, drug discovery relies on the surrogate filarial parasites Brugia spp. and cattle Onchocerca spp. Prioritized compounds from the Brugia worm screens were further tested with female and male adult O. ochengi as well as O. ochengi and L. loa mf.
# For these assays, O. ochengi adults were extracted from the subcutaneous nodules of infected cow skins purchased from the local slaughterhouse (Douala, Littoral Region, Cameroon) and incubated in 4 mL complete culture media comprised of RPMI-1640 (Sigma-Aldrich), 5% newborn calf serum, 200 units/mL penicillin, 200 μg/mL streptomycin and 2.5 μg/mL amphotericin B (Sigma-Aldrich) in 12-well plates overnight to validate sterility prior to the assays. Four to eight O. ochengi adult masses were treated individually the following day with a serial dilution of each compound, and controls were treated with 1% DMSO. While in culture, the male worms normally egress from the nodules into the surrounding media and thus can be monitored in parallel for motility. The O. ochengi adult masses were incubated at 37 °C with 5% CO2 for the duration of the assay. Male motility within each well was visually scored every day and over 5 days after compound addition, and female viability within the nodules was assessed by MTT after 7 days as previously described. The O. ochengi adult masses containing female worms were individually placed in wells of a 48-well plate with 0.5 mL of 0.5 mg/mL MTT in PBS and incubated at 37 °C for 30 min. […] Prism 4.0 for Windows was used to calculate IC50s.
# O. ochengi mf = assay: O. ochengi microfilariae motility assay; assay type: cell-based, Onchocerca ochengi; conditions: Onchocerca ochengi, 120 h; 10 µM, Day 5
# Protocol: (§1) To assess the effects of the compounds on O. ochengi mf, the mf were harvested from infected cow skin and cultured (10–15 mf per well) in 100 µL media in 96-well plates with a confluent feeder layer of monkey kidney epithelial cells (MK2) as previously described. […] All compounds were also counter-screened with L. loa mf collected from infected individuals with approval from the University of Buea (IRB approval # 964-19). Mf were separated from blood cells using a Percoll gradient as previously described and set up for assays (10–15 mf per well).
# Loa loa mf = assay: Loa loa microfilariae motility counter-screen; assay type: cell-based; conditions: Loa loa, 120 h, Day 5
# Protocol: as §1
# in vitro = conditions: dog, MDCK-MDR1
# Protocol: Permeability assays were conducted using 5 µM of each test compound with digoxin as a control. […] electrical resistance was used to verify the integrity of the MDCK-MDR1 monolayer. After compound addition, plates were incubated at 37 °C with 5% CO2 for 1 h. Samples were analyzed by LC–MS/MS and net flux ratio was calculated using basal-to-apical and apical-to-basal permeability.
# [2] = tested on: Brugia pahangi female worms; assay: Ex vivo microfilarial release and embryograms of female worms from treated gerbils; assay type: in vivo; conditions: females from gerbils treated IP 1 mg/kg
# Protocol: To test the effects of the compounds on female worm fertility, all surviving female worms were examined ex vivo to quantify the amount of mf released and profile the various stages of embryonic development within the uteri of individual female worms. After necropsy, female worms were incubated in individual wells of a 24-well plate with 2 mL Brugia culture media at 37 °C and 5% CO2. After 24 h, the number of mf released by each adult female was determined by counting the mf in a 0.5 mL sample of the media and multiplying by 4 to calculate the total number of mf. Additionally, embryogram analyses on the individual female worms was performed as described. […] The embryonic developmental stages (eggs, embryos, pre-mf and mf) were determined in two 10 μL aliquots using a compound microscope and hemocytometer. A minimum of 200 events were assessed from each female worm and at least 3 females were analyzed per animal from at least 3 animals per treatment group. The intra-uterine embryogram was expressed as the relative proportions of different stages of development: eggs, embryos, pre-mf, stretched mf and deformed embryos in the total number of events.
# Worm burden, peritoneal mf counts, overnight mf sheds and qPCR data were analyzed using a Kruskal–Wallis test followed by Dunn’s multiple comparison. […] All statistical analyses were determined using Prism 8 version 8.2.0(272).
# O. volvulus pre-adult L5 = assay: O. volvulus pre-adult (Ov L5) motility assay; assay type: cell-based; conditions: Onchocerca volvulus, 504 h; on Day 21; read-out: O. volvulus L5 Inhibition of Motility IC50
compound,measurement,setting,value
"Cc1ccc2c(ccc(/C=C/c3c(C)nn(-c4ccccc4)c3C)[n+]2C)c1.[I-] [Analog 06, 2-[(E)-2-(3,5-dimethyl-1-phenyl-1H-pyrazol-4-yl)ethenyl]-1,6-dimethylquinolin-1-ium iodide]",IC50,[1],460 nM
same,IC50,"[1]; Onchocerca volvulus, 144 h",458 nM
same,IC50,O. ochengi adult females,2990 nM
same,inhibition at 10 µM,O. ochengi mf,46%
same,inhibition at 10 µM,Loa loa mf,88%
same,Papp A→B,in vitro,0.5 ×10⁻⁶ cm/s
same,Papp B→A,in vitro,12.1 ×10⁻⁶ cm/s
same,Deformed embryos in gonads of female worms (embryogram) vs vehicle,[2],statistically significant increase in the number of deformed embryos
same,Mf released by female worms after 24 h ex vivo (overnight shed) vs vehicle,[2],significantly lower numbers of mf; also recorded: significantly reduced
same,IC50,O. volvulus pre-adult L5,220 nM
